ChEMBL document CHEMBL4270500, “From the hive: Honey, a novel weapon against cancer” (Eur J Med Chem, 2017)

Experiments:
[1] = Cytotoxicity in human M17 cells assessed as reduction in cell viability incubated for 48 hrs by MTT assay; type: functional, cell-based
[2] = Cytotoxicity in human SP6.5 cells assessed as reduction in cell viability incubated for 48 hrs by MTT assay; type: functional, cell-based
KYSE-510 = assay: Cytotoxicity in human KYSE-510 cells assessed as reduction in cell viability incubated for 24 to 72 hrs by MTT assay; type: functional, cell-based
HeLa = assay: Cytotoxicity in human HeLa cells assessed as reduction in cell viability incubated for 24 to 72 hrs by MTT assay; type: functional, cell-based
Caco-2 = assay: Inhibition of cell proliferation of human Caco2 cells at 1500 umol/L incubated for 1 to 3 days by trypan blue dye based hemocytometry relative to untreated control; type: functional
Ehrlich [3] = assay: Antitumour activity against mouse EAC implanted in BALB/c mouse assessed as inhibition of tumor growth at 100 mg/kg, ip dosed consecutively from day 1 to 9 relative to untreated control; type: functional; details: 24 h, read-out: TGI
Ehrlich [4] = assay: Antitumour activity against mouse EAC implanted in BALB/c mouse assessed as inhibition of solid tumor growth at 100 mg/kg, ip dosed consecutively from day 1 to 9 relative to untreated control; type: functional; details: 24 h, read-out: TGI

`O=c1cc(-c2ccccc2)oc2cc(O)cc(O)c12` [CHRYSIN] showed an IC50 [1] of 35.8 µM, an IC50 [2] of 28.3 µM and an IC50 (KYSE-510) of 63 µM. It also gave an IC50 (HeLa) of 14.2 µM.

For `O=C(O)/C=C/c1ccc(O)cc1` [COUMARIC ACID], the inhibition at 1500 µM (Caco-2) was 43 to 75%.

Molecule `C=CCc1ccc(O)c(OC)c1` [EUGENOL] has an inhibition in vivo at 100 mg/kg (Ehrlich [3]) of 28.9% and an inhibition in vivo at 100 mg/kg (Ehrlich [4]) of 24.4%.
